In paper PMC5391474, “Investigation of the Role of Protein Kinase D in Human Rhinovirus Replication” (Journal of Virology, 2017):

Experiments:
Test in all cases: biochemical
Set-up in all cases: in vitro kinase selectivity panel, protein and lipid kinases, single concentration, ATP at Km
Conditions in all cases: ATP at Km
IGF-1R(h) = molecular target: T1, IGF-1R(h) (Homo sapiens, UniProt P08069)
T1 construct: gene IGF1R
Outline: (§1)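 Single-point screen against a protein and lipid kinase panel: inhibitor at 1 μM. ATP concentration for every kinase equivalent to its Km.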

PIK3CA / p85 (h) = molecular target: T2, PIK3CA / p85 (h) (Homo sapiens, UniProt P42336)
T2 construct: p110alpha/p85
Outline: as §1

PKCβI(h) = molecular target: T3, PKCβI(h) (Homo sapiens, UniProt P05771)
T3 construct: gene PRKCB; isoform beta I
Outline: as §1

PDGFRβ(h) = molecular target: T4, PDGFRβ(h) (Homo sapiens, UniProt P09619)
T4 construct: gene PDGFRB
Outline: as §1

LIMK1(h) = LIMK1(h) (Homo sapiens, UniProt P53667)
Outline: as §1

Blk(m) = Blk(m) (Mus musculus, UniProt P16277)
Outline: as §1

PDGFRα(D842V)(h) = molecular target: T5, PDGFRα(D842V)(h) (Homo sapiens, UniProt P16234, D842V)
T5 construct: gene PDGFRA
Outline: as §1

Ret(h) = Ret(h) (Homo sapiens, UniProt P07949)
Outline: as §1

PIK4A = molecular target: T6, PIK4A (Homo sapiens, UniProt P42356)
T6 construct: gene PI4KA
Outline: as §1

DAPK1(h) = DAPK1(h) (Homo sapiens, UniProt P53355)
Outline: as §1

ROCK-I(h) = molecular target: T7, ROCK-I(h) (Homo sapiens, UniProt Q13464)
T7 construct: gene ROCK1
Outline: as §1

PKCι(h) = molecular target: T8, PKCι(h) (Homo sapiens, UniProt P41743)
T8 construct: gene PRKCI
Outline: as §1

PKD (PKD1) = molecular target: T9, PKD (PKD1) (Homo sapiens, UniProt Q15139)
T9 construct: gene PRKD1
Outline: as §1

MST3(h) = molecular target: T10, MST3(h) (Homo sapiens, UniProt Q9Y6E0)
T10 construct: gene STK24
Outline: as §1

PRK2(h) = molecular target: T11, PRK2(h) (Homo sapiens, UniProt Q16513)
T11 construct: gene PKN2
Outline: as §1

Abl(T315I)(h) = molecular target: T12, Abl(T315I)(h) (Homo sapiens, UniProt P00519, T315I)
T12 construct: gene ABL1
Outline: as §1

Fer(h) = Fer(h) (Homo sapiens, UniProt P16591)
Outline: as §1

T6 sequence (P42356 whole entry): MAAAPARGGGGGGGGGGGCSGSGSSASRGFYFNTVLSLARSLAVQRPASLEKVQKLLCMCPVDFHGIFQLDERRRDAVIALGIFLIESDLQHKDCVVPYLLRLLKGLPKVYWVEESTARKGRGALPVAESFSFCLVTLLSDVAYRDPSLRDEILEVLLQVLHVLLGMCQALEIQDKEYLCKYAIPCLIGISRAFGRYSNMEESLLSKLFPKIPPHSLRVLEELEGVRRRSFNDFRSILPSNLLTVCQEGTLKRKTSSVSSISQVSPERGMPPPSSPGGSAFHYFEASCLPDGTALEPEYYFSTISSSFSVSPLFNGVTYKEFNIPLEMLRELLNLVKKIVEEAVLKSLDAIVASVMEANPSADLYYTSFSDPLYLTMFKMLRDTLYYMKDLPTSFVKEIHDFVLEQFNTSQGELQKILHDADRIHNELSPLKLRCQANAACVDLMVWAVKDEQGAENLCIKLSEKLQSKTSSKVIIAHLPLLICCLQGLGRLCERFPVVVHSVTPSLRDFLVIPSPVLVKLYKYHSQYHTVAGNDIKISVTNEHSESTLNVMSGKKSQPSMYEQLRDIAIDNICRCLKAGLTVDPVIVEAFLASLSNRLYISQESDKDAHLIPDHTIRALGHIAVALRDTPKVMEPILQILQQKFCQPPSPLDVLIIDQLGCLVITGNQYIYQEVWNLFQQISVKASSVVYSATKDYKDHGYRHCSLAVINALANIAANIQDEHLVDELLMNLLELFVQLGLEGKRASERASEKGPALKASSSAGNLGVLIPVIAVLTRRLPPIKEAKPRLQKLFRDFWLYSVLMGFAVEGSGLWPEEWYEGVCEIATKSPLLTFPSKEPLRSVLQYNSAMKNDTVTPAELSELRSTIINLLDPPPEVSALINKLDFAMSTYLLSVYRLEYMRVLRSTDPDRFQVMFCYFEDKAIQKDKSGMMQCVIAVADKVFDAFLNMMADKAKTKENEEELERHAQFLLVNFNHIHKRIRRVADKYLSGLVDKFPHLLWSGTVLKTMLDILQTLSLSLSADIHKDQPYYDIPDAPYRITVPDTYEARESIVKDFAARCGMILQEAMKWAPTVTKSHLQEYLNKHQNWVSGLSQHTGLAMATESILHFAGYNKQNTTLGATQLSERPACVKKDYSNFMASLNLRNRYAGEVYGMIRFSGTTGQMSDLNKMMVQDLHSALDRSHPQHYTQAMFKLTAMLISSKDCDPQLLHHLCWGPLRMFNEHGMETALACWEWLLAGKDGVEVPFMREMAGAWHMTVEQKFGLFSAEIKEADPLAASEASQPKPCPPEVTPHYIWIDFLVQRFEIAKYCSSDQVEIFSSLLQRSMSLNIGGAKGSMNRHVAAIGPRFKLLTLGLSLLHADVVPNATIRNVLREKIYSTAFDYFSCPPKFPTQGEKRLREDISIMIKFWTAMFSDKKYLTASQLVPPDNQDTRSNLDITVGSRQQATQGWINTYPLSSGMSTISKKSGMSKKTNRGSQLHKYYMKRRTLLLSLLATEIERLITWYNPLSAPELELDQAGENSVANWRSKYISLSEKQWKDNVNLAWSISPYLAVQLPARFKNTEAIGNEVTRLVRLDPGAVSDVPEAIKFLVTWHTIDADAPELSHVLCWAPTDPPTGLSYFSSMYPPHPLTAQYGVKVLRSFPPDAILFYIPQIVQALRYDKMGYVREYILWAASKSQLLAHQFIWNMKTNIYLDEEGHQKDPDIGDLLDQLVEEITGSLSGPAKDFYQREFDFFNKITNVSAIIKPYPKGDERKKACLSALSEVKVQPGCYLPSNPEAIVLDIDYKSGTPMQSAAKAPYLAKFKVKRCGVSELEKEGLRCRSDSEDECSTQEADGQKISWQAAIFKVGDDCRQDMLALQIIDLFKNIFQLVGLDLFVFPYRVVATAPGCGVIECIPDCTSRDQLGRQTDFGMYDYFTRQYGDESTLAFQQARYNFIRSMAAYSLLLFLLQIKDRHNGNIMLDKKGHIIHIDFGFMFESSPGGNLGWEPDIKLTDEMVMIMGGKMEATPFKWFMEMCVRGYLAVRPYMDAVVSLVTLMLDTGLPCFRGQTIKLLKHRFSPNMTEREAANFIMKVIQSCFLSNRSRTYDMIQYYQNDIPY
Chain of Fer(h) (P16591 whole entry): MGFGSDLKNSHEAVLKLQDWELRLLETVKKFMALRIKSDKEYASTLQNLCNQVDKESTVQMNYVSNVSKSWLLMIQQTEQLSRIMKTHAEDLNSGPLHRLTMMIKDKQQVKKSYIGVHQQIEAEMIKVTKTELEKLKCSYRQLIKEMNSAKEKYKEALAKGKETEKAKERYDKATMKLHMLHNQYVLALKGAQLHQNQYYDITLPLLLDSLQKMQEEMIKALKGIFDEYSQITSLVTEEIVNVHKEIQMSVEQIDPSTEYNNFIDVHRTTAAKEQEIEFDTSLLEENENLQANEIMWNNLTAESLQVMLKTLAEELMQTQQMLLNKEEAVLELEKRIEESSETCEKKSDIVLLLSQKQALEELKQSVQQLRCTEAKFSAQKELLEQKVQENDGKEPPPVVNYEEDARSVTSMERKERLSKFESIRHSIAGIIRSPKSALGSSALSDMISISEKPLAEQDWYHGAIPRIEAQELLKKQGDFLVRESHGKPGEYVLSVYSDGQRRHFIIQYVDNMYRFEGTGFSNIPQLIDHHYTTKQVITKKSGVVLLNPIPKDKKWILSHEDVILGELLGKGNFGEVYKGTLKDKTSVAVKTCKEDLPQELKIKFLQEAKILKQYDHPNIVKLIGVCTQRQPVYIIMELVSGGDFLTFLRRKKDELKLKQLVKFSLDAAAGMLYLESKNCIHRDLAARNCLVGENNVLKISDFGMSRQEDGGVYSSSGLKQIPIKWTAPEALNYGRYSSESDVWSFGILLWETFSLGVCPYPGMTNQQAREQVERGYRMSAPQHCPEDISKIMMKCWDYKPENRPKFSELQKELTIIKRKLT
T2 sequence (P42336 whole entry): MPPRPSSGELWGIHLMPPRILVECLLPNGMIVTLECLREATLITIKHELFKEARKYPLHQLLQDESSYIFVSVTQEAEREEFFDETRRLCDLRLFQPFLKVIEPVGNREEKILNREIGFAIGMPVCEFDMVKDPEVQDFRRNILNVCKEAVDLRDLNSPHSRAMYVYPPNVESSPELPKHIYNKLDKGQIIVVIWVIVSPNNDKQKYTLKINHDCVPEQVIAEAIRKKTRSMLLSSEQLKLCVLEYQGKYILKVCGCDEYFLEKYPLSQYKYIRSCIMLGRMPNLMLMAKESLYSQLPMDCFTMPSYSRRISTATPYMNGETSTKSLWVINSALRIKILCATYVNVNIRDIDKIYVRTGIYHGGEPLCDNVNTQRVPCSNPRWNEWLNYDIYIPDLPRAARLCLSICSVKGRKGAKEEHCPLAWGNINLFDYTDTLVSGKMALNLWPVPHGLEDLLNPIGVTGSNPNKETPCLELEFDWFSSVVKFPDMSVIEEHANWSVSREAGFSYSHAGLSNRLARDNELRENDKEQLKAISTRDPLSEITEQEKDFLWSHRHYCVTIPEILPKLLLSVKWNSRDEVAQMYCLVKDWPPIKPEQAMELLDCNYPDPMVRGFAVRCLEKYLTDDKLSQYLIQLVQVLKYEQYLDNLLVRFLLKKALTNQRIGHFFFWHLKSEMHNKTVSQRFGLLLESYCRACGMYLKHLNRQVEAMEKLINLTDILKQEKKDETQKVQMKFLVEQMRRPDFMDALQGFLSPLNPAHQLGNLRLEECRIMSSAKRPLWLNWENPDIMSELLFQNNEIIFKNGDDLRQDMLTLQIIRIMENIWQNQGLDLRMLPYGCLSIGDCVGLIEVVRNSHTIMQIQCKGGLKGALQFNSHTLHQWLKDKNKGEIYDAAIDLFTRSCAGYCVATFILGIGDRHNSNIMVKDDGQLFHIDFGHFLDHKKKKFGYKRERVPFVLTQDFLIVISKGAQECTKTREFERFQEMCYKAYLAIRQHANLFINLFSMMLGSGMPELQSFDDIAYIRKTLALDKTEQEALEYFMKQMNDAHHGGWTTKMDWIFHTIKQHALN
T2 sequence (P27986 whole entry partner): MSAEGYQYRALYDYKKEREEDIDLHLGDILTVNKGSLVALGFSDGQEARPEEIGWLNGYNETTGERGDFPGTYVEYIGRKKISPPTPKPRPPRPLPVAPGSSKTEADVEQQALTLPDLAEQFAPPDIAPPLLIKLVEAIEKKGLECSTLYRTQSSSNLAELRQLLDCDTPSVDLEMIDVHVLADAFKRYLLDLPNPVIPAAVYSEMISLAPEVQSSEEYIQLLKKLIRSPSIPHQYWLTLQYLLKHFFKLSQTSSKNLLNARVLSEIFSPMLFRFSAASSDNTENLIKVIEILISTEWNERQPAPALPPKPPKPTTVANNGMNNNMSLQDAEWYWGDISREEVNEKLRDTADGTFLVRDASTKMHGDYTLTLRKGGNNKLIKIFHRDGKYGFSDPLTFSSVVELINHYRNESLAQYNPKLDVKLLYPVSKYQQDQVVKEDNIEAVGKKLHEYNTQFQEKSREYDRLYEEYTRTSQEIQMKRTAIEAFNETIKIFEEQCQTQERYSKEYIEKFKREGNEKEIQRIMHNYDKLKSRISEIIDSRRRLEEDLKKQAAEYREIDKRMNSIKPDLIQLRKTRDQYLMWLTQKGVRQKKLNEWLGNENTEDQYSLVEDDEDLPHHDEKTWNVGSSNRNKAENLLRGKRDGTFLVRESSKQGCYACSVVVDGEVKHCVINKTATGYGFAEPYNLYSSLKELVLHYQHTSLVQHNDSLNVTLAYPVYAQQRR

Work on CC[C@@H](N)CNc1ccnc(-c2cc(-c3cnn(C)c3)ccc2O)n1 [CRT0066101] yielded an inhibition at 1 µM (IGF-1R(h)) of -14%, an inhibition at 1 µM (PIK3CA / p85 (h)) of -1% and an inhibition at 1 µM (PKCβI(h)) of 11%. It also gave an inhibition at 1 µM (PDGFRβ(h)) of -1%, an inhibition at 1 µM (LIMK1(h)) of 0% and an inhibition at 1 µM (Blk(m)) of 12%. It also gave an inhibition at 1 µM (PDGFRα(D842V)(h)) of 61%, an inhibition at 1 µM (Ret(h)) of 0% and an inhibition at 1 µM (PIK4A) of -11%. For the same compound, the inhibition at 1 µM (DAPK1(h)) was -8%, the inhibition at 1 µM (ROCK-I(h)) was 4% and the inhibition at 1 µM (PKCι(h)) was 10%. For the same compound, the inhibition at 1 µM (PKD (PKD1)) was 98%, the inhibition at 1 µM (MST3(h)) was -6% and the inhibition at 1 µM (PRK2(h)) was 77%. For the same compound, the inhibition at 1 µM (Abl(T315I)(h)) was 5% and the inhibition at 1 µM (Fer(h)) was -25%.
